Test results: patent publication US11427567B2, “Imidazolyl pyrimidinylamine compounds as CDK2 inhibitors” (Incyte Corporation, priority 2019, dated 2022)

Biological target: CDK2/Cyclin E1 (Homo sapiens (Human), UniProt P24941)
Assay: CDK2/Cyclin E1 HTRF enzyme activity assay (Example A)
Assay type: biochemical
Conditions: 1 mM ATP
Procedure: Assays were conducted in white 384-well polystyrene plates in a final reaction volume of 8 μL. […] HTRF signals were read after 1 hour at room temperature on a PHERAstar FS plate reader (BMG Labtech). Data was analyzed with IDBS XLFit and GraphPad Prism 5.0 software using a three or four parameter dose response curve to determine IC50 for each compound.

Row | SMILES | IC50
1 | Cn1c(Cl)nc(-c2nc(NC3CCN(S(C)(=O)=O)CC3)ncc2C(F)(F)F)c1Cl [Example 12, 4-(2,5-Dichloro-1-methyl-1H-imidazol-4-yl)-N-(1-(methylsulfonyl)piperidin-4-yl)-5-(trifluoromethyl)pyrimidin-2-amine] | ≤ 50 nM
2 | CNCc1ccc(-n2cnc(-c3nc(NC4CCN(S(C)(=O)=O)CC4)ncc3C#N)c2)c(Cl)c1 [Example 226, 4-(1-(2-Chloro-4-((methylamino)-methyl)phenyl)-1H-imidazol-4-yl)-2-((1-(methylsulfonyl)-piperidin-4-yl)-amino)pyrimidine-5-carbonitrile] | ≤ 50 nM
3 | CN(C)CCc1ccc(-n2cnc(-c3nc(NC4CCN(S(C)(=O)=O)CC4)ncc3C(F)(F)F)c2)c(Cl)c1 [Example 157, 4-(1-(2-Chloro-4-(2-(dimethylamino)ethyl)phenyl)-1H-imidazol-4-yl)-N-(1-(methylsulfonyl)piperidin-4-yl)-5-(trifluoromethyl)pyrimidin-2-amine] | ≤ 50 nM
4 | CCS(=O)(=O)N1CCC(Nc2ncc(C(F)(F)F)c(-c3cn(-c4cccnc4C#N)cn3)n2)CC1 [Example 89, 3-(4-(2-((1-(Ethylsulfonyl)piperidin-4-yl)amino)-5-(trifluoromethyl)pyrimidin-4-yl)-1H-imidazol-1-yl)picolinonitrile] | ≤ 50 nM
5 | Cc1ccc(-n2cnc(-c3nc(NC4CCN(S(C)(=O)=O)CC4)ncc3C(F)(F)F)c2)c(C#N)n1 [Example 36, 6-Methyl-3-(4-(2-((1-(methylsulfonyl)piperidin-4-yl)amino)-5-(trifluoromethyl)pyrimidin-4-yl)-1H-imidazol-1-yl)picolinonitrile] | ≤ 50 nM
6 | Cc1nc(-c2nc(NC3CCN(S(C)(=O)=O)CC3)ncc2C(F)(F)F)cn1-c1ccc(-c2cnnn2C)cc1F [Example 128, 4-(1-(2-Fluoro-4-(1-methyl-1H-1,2,3-triazol-5-yl)phenyl)-2-methyl-1H-imidazol-4-yl)-N-(1-(methylsulfonyl)piperidin-4-yl)-5-(trifluoromethyl)pyrimidin-2-amine] | ≤ 50 nM
7 | COc1ccc(-n2cnc(-c3nc(NC4CCN(S(C)(=O)=O)CC4)ncc3C(F)(F)F)c2)c(Cl)c1 [Example 151, 4-(1-(2-Chloro-4-methoxyphenyl)-1H-imidazol-4-yl)-N-(1-(methylsulfonyl)piperidin-4-yl)-5-(trifluoromethyl)pyrimidin-2-amine] | ≤ 50 nM
8 | CS(=O)(=O)N1CCC(Nc2ncc(C(F)(F)F)c(-c3cn(-c4ccc(CN5C6CCC5COC6)cc4Cl)cn3)n2)CC1 [Example 215, 4-(1-(4-((3-Oxa-8-azabicyclo[3.2.1]-octan-8-yl)methyl)-2-chlorophenyl)-1H-imidazol-4-yl)-N-(1-(methylsulfonyl)-piperidin-4-yl)-5-(trifluoromethyl)-pyrimidin-2-amine] | ≤ 50 nM
9 | CS(=O)(=O)N1CCC(Nc2ncc(C(F)(F)F)c(-c3cn(-c4ccc5nccnc5c4Br)cn3)n2)CC1 [Example 162, 4-(1-(5-Bromoquinoxalin-6-yl)-1H-imidazol-4-yl)-N-(1-(methylsulfonyl)piperidin-4-yl)-5-(trifluoromethyl)pyrimidin-2-amine] | ≤ 50 nM
10 | CS(=O)(=O)N1CCC(Nc2ncc(C(F)(F)F)c(-c3cn(-c4ccc(N5CCC(N6CCCC6)CC5)cc4Cl)cn3)n2)CC1 [Example 146, 4-(1-(2-Chloro-4-(4-(pyrrolidin-1-yl)piperidin-1-yl)-phenyl)-1H-imidazol-4-yl)-N-(1-(methylsulfonyl)-piperidin-4-yl)-5-(trifluoromethyl)-pyrimidin-2-amine] | ≤ 50 nM
11 | CS(=O)(=O)N1CCC(Nc2ncc(C(F)(F)F)c(-c3cn(-c4c(Cl)cccc4C#N)cn3)n2)CC1 [Example 2, 3-Chloro-2-(4-(2-((1-(methylsulfonyl)piperidin-4-yl)amino)-5-(trifluoromethyl)pyrimidin-4-yl)-1H-imidazol-1-yl)benzonitrile] | ≤ 50 nM
12 | C[C@@H]1CN(S(=O)(=O)C2CC2)CC[C@@H]1Nc1ncc(C(F)(F)F)c(-c2cn(-c3ccc(CNC4CC4)cc3Cl)cn2)n1 [Example 221, 4-(1-(2-Chloro-4-((cyclopropylamino)-methyl)phenyl)-1H-imidazol-4-yl)-N-((3R,4S)-1-(cyclo-propylsulfonyl)-3-methylpiperidin-4-yl)-5-(trifluoro-methyl)pyrimidin-2-amine] | ≤ 50 nM

Continued, values first:

Row | IC50 | SMILES
13 | ≤ 50 nM | CS(=O)(=O)N1CCC(Nc2ncc(C(F)(F)F)c(-c3cn(-c4ccc(CN5CCCC5)cc4C#N)cn3)n2)CC1 [Example 346, 2-(4-(2-((1-(Methylsulfonyl)piperidin-4-yl)amino)-5-(trifluoromethyl)pyrimidin-4-yl)-1H-imidazol-1-yl)-5-(pyrrolidin-1-ylmethyl)benzonitrile]
14 | ≤ 50 nM | Cc1nc(-c2nc(NC3CCN(S(C)(=O)=O)CC3)ncc2C(F)(F)F)cn1-c1ccc(CCN2CCC2)cc1F [Example 416, 4-(1-(4-(2-(Azetidin-1-yl)ethyl)-2-fluorophenyl)-2-methyl-1H-imidazol-4-yl)-N-(1-(methylsulfonyl)piperidin-4-yl)-5-(trifluoromethyl)pyrimidin-2-amine]
15 | ≤ 50 nM | CS(=O)(=O)N1CCC(Nc2ncc(C(F)(F)F)c(-c3cn(-c4ccc(CN5CC(O)C5)cc4C(F)(F)F)cn3)n2)CC1 [Example 259, 1-(4-(4-(2-((1-(Methylsulfonyl)piperidin-4-yl)amino)-5-(trifluoromethyl)pyrimidin-4-yl)-1H-imidazol-1-yl)-3-(trifluoromethyl)benzyl) azetidin-3-ol]
16 | ≤ 50 nM | COc1nccc(-n2cnc(-c3nc(NC4CCN(S(C)(=O)=O)CC4)ncc3C(F)(F)F)c2)c1Cl [Example 295, 4-(1-(3-Chloro-2-methoxypyridin-4-yl)-1H-imidazol-4-yl)-N-(1-(methylsulfonyl)piperidin-4-yl)-5-(trifluoromethyl)pyrimidin-2-amine]
17 | ≤ 50 nM | CS(=O)(=O)N1CCC(Nc2ncc(C(F)(F)F)c(-c3cn(-c4ccccc4CO)cn3)n2)CC1 [Example 237, (2-(4-(2-((1-(Methylsulfonyl)piperidin-4-yl)amino)-5-(trifluoromethyl)pyrimidin-4-yl)-1H-imidazol-1-yl)phenyl)methanol]
18 | ≤ 50 nM | CS(=O)(=O)N1CCC(Nc2ncc(C(F)(F)F)c(-c3cn(-c4cccc(CN5CC(C#N)C5)c4C(F)(F)F)cn3)n2)CC1 [Example 470, 1-(3-(4-(2-((1-(Methylsulfonyl)piperidin-4-yl)amino)-5-(trifluoromethyl)pyrimidin-4-yl)-1H-imidazol-1-yl)-2-(trifluoromethyl)benzyl)azetidine-3-carbonitrile]
19 | ≤ 50 nM | Cc1nc(CN2CCCCC2)ccc1-n1cnc(-c2nc(NC3CCN(S(C)(=O)=O)CC3)ncc2C(F)(F)F)c1 [Example 382, 4-(1-(2-Methyl-6-(piperidin-1-ylmethyl)pyridin-3-yl)-1H-imidazol-4-yl)-N-(1-(methylsulfonyl)piperidin-4-yl)-5-(trifluoromethyl)pyrimidin-2-amine]
20 | ≤ 50 nM | CNC(C)c1ccc(-n2cnc(-c3nc(NC4CCN(S(C)(=O)=O)CC4)ncc3C(F)(F)F)c2)c(Cl)c1 (single isomer, unassigned) [Example 275, 4-(1-(2-Chloro-4-(1-(methylamino)ethyl)phenyl)-1H-imidazol-4-yl)-N-(1-(methylsulfonyl)piperidin-4-yl)-5-(trifluoromethyl)pyrimidin-2-amine]
21 | ≤ 50 nM | CCNCc1ccc(-n2cc(-c3nc(NC4CCN(S(C)(=O)=O)CC4)ncc3C(F)(F)F)nc2C)c(F)c1 [Example 359, 4-(1-(4-((Ethylamino)methyl)-2-fluorophenyl)-2-methyl-1H-imidazol-4-yl)-N-(1-(methylsulfonyl)piperidin-4-yl)-5-(trifluoromethyl)pyrimidin-2-amine]
22 | ≤ 50 nM | CS(=O)(=O)N1CCC(Nc2ncc(C(F)(F)F)c(-c3cn(-c4cccc(CN5CC(C#N)C5)c4Cl)cn3)n2)CC1 [Example 463, 1-(2-Chloro-3-(4-(2-((1-(methylsulfonyl)piperidin-4-yl)amino)-5-(trifluoromethyl)pyrimidin-4-yl)-1H-imidazol-1-yl)benzyl)azetidine-3-carbonitrile]
23 | ≤ 50 nM | CS(=O)(=O)N1CCC(Nc2ncc(C(F)(F)F)c(-c3cn(-c4ccccc4Br)cn3)n2)CC1 [Example 442, 4-(1-(2-Bromophenyl)-1H-imidazol-4-yl)-N-(1-(methylsulfonyl)piperidin-4-yl)-5-(trifluoromethyl)pyrimidin-2-amine]
24 | ≤ 50 nM | CN(C)c1nccc(-n2cnc(-c3nc(NC4CCN(S(C)(=O)=O)CC4)ncc3C(F)(F)F)c2)c1Cl [Example 321, 4-(1-(3-Chloro-2-(dimethylamino)pyridin-4-yl)-1H-imidazol-4-yl)-N-(1-(methylsulfonyl)piperidin-4-yl)-5-(trifluoromethyl)pyrimidin-2-amine]
25 | ≤ 50 nM | Cc1nc(-c2nc(N[C@H]3CCN(S(C)(=O)=O)C[C@H]3F)ncc2C(F)(F)F)cn1-c1ccc(CNC(C)C)cc1F [Example 388, N-((3R,4S)-3-Fluoro-1-(methylsulfonyl)piperidin-4-yl)-4-(1-(2-fluoro-4-((isoporopylamino)methyl)phenyl)-2-methyl-1H-imidazol-4-yl)-5-(trifluoromethyl)pyrimidin-2-amine]
26 | ≤ 50 nM | CNCc1ccc(-n2cnc(-c3nc(NC4CCN(S(C)(=O)=O)CC4)ncc3C(F)(F)F)c2)c(F)c1 [Example 266, 4-(1-(2-Fluoro-4-((methylamino)methyl)phenyl)-1H-imidazol-4-yl)-N-(1-(methylsulfonyl)piperidin-4-yl)-5-(trifluoromethyl)pyrimidin-2-amine]
27 | ≤ 50 nM | CS(=O)(=O)N1CCC(Nc2ncc(C(F)(F)F)c(-c3cn(-c4c(F)cc(CN5CCC5)cc4Cl)cn3)n2)CC1 [Example 395, 4-(1-(4-(Azetidin-1-ylmethyl)-2-chloro-6-fluorophenyl)-1H-imidazol-4-yl)-N-(1-(methyslulfonyl)piperidin-4-yl)-5-(trifluoromethyl)pyrimidin-2-amine]
